Molecular target: human CYCLIC GMP-AMP SYNTHASE (h-cGAS) (Homo sapiens, UniProt Q8N884)
Experiment: IFN-luciferase reporter dose response in HT-DNA-stimulated THP-1 cells; LC-MS/MS of intracellular cGAMP in RAW KO-cGAS cells expressing h-cGAS
Assay type: cell-based

human CYCLIC GMP-AMP SYNTHASE (h-cGAS), sequence (Q8N884 whole entry): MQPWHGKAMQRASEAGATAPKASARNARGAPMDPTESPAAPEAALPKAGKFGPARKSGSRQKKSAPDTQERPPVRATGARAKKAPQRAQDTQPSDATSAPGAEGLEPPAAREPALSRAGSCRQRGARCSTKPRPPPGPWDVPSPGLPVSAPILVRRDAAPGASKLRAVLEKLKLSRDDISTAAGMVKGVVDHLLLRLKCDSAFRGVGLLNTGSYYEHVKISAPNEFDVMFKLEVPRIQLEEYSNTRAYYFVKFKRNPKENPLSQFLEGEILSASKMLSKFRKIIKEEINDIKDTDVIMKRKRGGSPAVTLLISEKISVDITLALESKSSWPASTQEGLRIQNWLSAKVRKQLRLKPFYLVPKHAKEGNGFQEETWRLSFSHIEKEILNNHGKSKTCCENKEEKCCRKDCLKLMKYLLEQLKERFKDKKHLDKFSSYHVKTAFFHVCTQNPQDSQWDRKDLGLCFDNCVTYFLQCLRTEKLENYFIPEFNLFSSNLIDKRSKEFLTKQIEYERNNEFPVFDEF

RU.521 gave an IC50 of about 0.8 µM.

Source: paper PMC7200739, “Small molecule inhibition of human cGAS reduces total cGAMP output and cytokine expression in cells” (Scientific Reports, 2020)
